Results published in ChEMBL document CHEMBL2074457, “LST-2, a human liver-specific organic anion transporter, determines methotrexate sensitivity in gastrointestinal cancers” (Gastroenterology, 2001).

How the values were obtained:
[1] = target: T1, Solute carrier organic anion transporter family member 1B1 (Homo sapiens, UniProt Q9Y6L6); assay: (§1) TP_TRANSPORTER: uptake in Xenopus laevis oocytes; assay type: functional, cell-based; conditions: oocyte
T1 sequence (Q9Y6L6 whole entry): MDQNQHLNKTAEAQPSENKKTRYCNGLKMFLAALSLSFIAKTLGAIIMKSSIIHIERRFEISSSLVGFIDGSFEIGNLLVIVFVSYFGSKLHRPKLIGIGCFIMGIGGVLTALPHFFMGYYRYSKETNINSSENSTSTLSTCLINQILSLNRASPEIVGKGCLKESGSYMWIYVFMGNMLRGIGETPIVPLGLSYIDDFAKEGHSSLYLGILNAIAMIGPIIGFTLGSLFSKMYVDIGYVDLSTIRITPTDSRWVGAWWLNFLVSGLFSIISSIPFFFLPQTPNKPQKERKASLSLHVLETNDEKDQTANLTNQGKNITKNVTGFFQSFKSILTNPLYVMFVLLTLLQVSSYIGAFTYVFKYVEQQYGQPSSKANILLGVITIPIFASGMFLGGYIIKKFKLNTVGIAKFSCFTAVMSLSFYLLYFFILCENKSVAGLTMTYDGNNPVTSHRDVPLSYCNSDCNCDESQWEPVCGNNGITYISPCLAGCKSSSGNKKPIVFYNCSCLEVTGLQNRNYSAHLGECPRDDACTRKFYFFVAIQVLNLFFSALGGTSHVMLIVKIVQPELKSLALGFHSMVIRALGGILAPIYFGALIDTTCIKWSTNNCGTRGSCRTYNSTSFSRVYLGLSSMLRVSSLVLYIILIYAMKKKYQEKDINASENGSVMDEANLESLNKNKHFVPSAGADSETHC

[2] = target: T2, Solute carrier organic anion transporter family member 1B3 (Homo sapiens, UniProt Q9NPD5); assay: as §1; assay type: functional, cell-based, Oocyte; conditions: for Km: Xenopus laevis oocytes expressing SLCO1B3 (OATP1B3); for Activity: oocyte
T2 sequence (Q9NPD5 whole entry): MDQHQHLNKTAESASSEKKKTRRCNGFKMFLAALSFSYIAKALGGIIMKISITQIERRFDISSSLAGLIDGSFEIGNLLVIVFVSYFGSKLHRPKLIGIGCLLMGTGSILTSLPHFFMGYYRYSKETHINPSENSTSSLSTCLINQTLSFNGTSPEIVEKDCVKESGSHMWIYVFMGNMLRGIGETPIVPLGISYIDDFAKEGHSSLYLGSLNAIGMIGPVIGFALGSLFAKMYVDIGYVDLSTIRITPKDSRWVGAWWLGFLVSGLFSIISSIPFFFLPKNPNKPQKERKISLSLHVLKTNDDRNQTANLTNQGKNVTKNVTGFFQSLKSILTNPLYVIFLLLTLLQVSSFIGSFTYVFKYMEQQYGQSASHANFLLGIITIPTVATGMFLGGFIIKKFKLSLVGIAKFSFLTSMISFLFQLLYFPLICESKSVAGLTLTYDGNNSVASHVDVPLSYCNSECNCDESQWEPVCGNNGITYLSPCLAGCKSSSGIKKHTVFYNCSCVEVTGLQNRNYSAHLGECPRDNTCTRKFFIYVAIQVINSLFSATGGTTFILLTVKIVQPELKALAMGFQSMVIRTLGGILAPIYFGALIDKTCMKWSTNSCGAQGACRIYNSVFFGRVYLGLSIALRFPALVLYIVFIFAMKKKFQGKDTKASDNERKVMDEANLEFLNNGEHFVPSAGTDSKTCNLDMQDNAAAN

[3] = target: T2, Solute carrier organic anion transporter family member 1B3; assay: TP_TRANSPORTER: inhibition of MTX uptake (MTX: 1 uM, BSP: 100 uM) in Xenopus laevis oocytes; assay type: functional, cell-based; conditions: oocyte

Compound | Km [2] [µM] | Activity [2] | further results
CN(Cc1cnc2nc(N)nc(N)c2n1)c1ccc(C(=O)N[C@@H](CCC(=O)O)C(=O)O)cc1 [METHOTREXATE] | 24.7 |  | Activity [1]: substrate [+]
O=C1OC(c2ccc(O)c(S(=O)(=O)[O-])c2)(c2ccc(O)c(S(=O)(=O)[O-])c2)c2c(Br)c(Br)c(Br)c(Br)c21.[Na+].[Na+] [SULFOBROMOPHTHALEIN SODIUM] |  |  | Activity [3]: inhibitor [+]
N[C@@H](Cc1cc(I)c(Oc2ccc(O)c(I)c2)c(I)c1)C(=O)O [LIOTHYRONINE] | 6.4 |  | 
C[C@]12CC[C@H](OS(=O)(=O)O)CC1=CC[C@@H]1[C@@H]2CC[C@]2(C)C(=O)CC[C@@H]12 [PRASTERONE SULFURIC ACID] |  | substrate [+] | 
CC1(C)SSC(C)(C)[C@@H](NC(=O)[C@@H](N)Cc2ccc(O)cc2)C(=O)NCC(=O)N[C@@H](Cc2ccccc2)C(=O)N[C@H]1C(=O)O |  | is not a substrate [-] | 
